The record followed here is PubChem BioAssay (NCI).

Structures are written as SMILES.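 Where inhibition never reached the appropriate level, the endpoint shown equals the highest concentration tested. Otherwise, values were interpolated linearly from a five-concentration, 48-hour dose response in 96-well plates. At the TGI there is no net growth.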

Some test systems named below: SK-MEL-28 melanoma; ACHN renal; HCT-116 colon; SNB-19 CNS; SR leukemia; HCC-2998 colon; TK-10 renal; CCRF-CEM leukemia; SW-620 colon.
Holding throughout (test): growth of human tumour cells (NCI), 48 h

As to `Cc1cc(Cl)nc2nc(Cl)c(N)cc12`, the TGI in the assay with SK-MEL-28 melanoma was 6.21 µM; with ACHN renal, 18.4 µM; in the assay with HCT-116 colon it was 5.92 µM; in the assay on SNB-19 CNS, 9.57 µM; with SR leukemia it was > 25.2 µM; with HCC-2998 colon, 3.59 µM. In addition, the TGI is 13.6 µM in the assay on TK-10 renal, > 19.7 µM in the assay on CCRF-CEM leukemia and 4.08 µM in the assay on SW-620 colon.
Take `COc1ccc(OC)c(NCC(=O)Nn2cnc3ccc(S(=O)(=O)Nc4cc(OC)ccc4OC)cc3c2=O)c1`: the TGI in the assay with SK-MEL-28 melanoma, in the assay on ACHN renal, in the assay on HCT-116 colon, in the assay with SNB-19 CNS, in the assay on SR leukemia and in the assay on HCC-2998 colon was > 100 µM throughout. For the same molecule, the TGI in the assay on TK-10 renal, in the assay with CCRF-CEM leukemia and in the assay on SW-620 colon was > 100 µM each time.
With `CC1CN=C(NS(=O)(=O)c2cc(C(=O)Nc3ccc(Cl)cc3)c(Cl)cc2S)NN1` (stereo not drawn), the TGI with SK-MEL-28 melanoma is 83.9 µM; in the assay on ACHN renal it was > 100 µM; with HCT-116 colon, > 100 µM; in the assay with SNB-19 CNS, > 100 µM; with SR leukemia it was > 100 µM; in the assay on HCC-2998 colon, 49.1 µM. Also, the TGI in the assay with TK-10 renal, in the assay on CCRF-CEM leukemia and with SW-620 colon was > 100 µM in each case.
`NNC(=O)CC(=O)Nc1cccc(Cl)c1`: the TGI with SK-MEL-28 melanoma, in the assay with ACHN renal, with HCT-116 colon, in the assay with SNB-19 CNS, with SR leukemia and in the assay on HCC-2998 colon was > 100 µM each time. Besides, the TGI in the assay with TK-10 renal, in the assay on CCRF-CEM leukemia and in the assay with SW-620 colon was > 100 µM each time.
Consider `OC1c2ccccc2CCC1CN1CCN(CCOC(c2ccc(F)cc2)c2ccc(F)cc2)CC1` (stereo not drawn), for which the TGI in the assay on SK-MEL-28 melanoma is 26.6 µM; in the assay on ACHN renal it was > 100 µM; in the assay with HCT-116 colon, 20.8 µM; with SNB-19 CNS, > 100 µM; in the assay with SR leukemia, > 100 µM; in the assay on HCC-2998 colon, 18.9 µM. Further, the TGI in the assay with TK-10 renal came to 42.4 µM; in the assay on CCRF-CEM leukemia, 15.1 µM; in the assay on SW-620 colon it was 38.2 µM.
In the case of `c1cc(-c2ccc(-c3ccc(-c4ccc(-c5ccncc5)o4)cc3)o2)ccn1`, the TGI turned out to be 44.6 µM with SK-MEL-28 melanoma; 64.6 µM with ACHN renal; 29.6 µM with HCT-116 colon; 39.7 µM in the assay on SNB-19 CNS; 58.8 µM with SR leukemia; 33.1 µM in the assay on HCC-2998 colon. Further, the TGI was 31.2 µM in the assay with TK-10 renal, 30.2 µM in the assay on CCRF-CEM leukemia and > 100 µM in the assay on SW-620 colon.
With `CCOC(=O)c1cc(-n2nnc3ccccc32)cn1C`, the TGI with SK-MEL-28 melanoma, with ACHN renal, in the assay with HCT-116 colon, in the assay with SNB-19 CNS, in the assay with SR leukemia and with HCC-2998 colon was > 10 µM each time. In addition, the TGI in the assay on TK-10 renal and in the assay on CCRF-CEM leukemia was > 10 µM each time.
For `COC(=O)C1CCN(C(=O)OC(C)(C)C)CC1`, the TGI in the assay with SK-MEL-28 melanoma, in the assay with ACHN renal, in the assay with HCT-116 colon, in the assay with SNB-19 CNS, in the assay on SR leukemia and in the assay with HCC-2998 colon was > 100 µM throughout. Besides, the TGI with TK-10 renal, in the assay on CCRF-CEM leukemia and in the assay with SW-620 colon was > 100 µM throughout.
`S=C(NCCc1ccccn1)N/N=C/c1ccccn1`: the TGI with SK-MEL-28 melanoma is > 100 µM; in the assay on ACHN renal, 4.82 µM; with HCT-116 colon it was < 0.01 µM; in the assay with SNB-19 CNS it was > 100 µM; in the assay with SR leukemia, < 0.0182 µM; in the assay with HCC-2998 colon it was > 100 µM. In addition, the values for the TGI in the assay on TK-10 renal, in the assay with CCRF-CEM leukemia and in the assay with SW-620 colon were > 100 µM, < 0.01 µM and > 100 µM, respectively.
In the case of `COC(=O)/C=C\C(C#N)(C#N)N=Cc1cccc(OC)c1`, the TGI in the assay with SK-MEL-28 melanoma is 29.4 µM; in the assay on ACHN renal, 7.63 µM; in the assay with HCT-116 colon, 7.14 µM; in the assay with SNB-19 CNS it was 46.3 µM; with SR leukemia, > 24.5 µM; with HCC-2998 colon, 34.4 µM. Also, the TGI in the assay with TK-10 renal is 4.78 µM; in the assay with CCRF-CEM leukemia it was > 50.8 µM; in the assay on SW-620 colon, 5.68 µM.
Consider `Cc1nc(SCC(=O)Nc2ccc(Cl)cc2)c2sc(=S)n(-c3ccccc3)c2n1`, for which the TGI in the assay on SK-MEL-28 melanoma, in the assay with ACHN renal, in the assay with HCT-116 colon, in the assay on SNB-19 CNS, with SR leukemia and in the assay with HCC-2998 colon was > 10 µM each time. Besides, the TGI in the assay on TK-10 renal, in the assay on CCRF-CEM leukemia and in the assay with SW-620 colon was > 10 µM in each case.
Regarding `NC(N)=NS(=O)(=O)c1ccc(N/N=C2/CCOC2=O)cc1`, the TGI in the assay with SK-MEL-28 melanoma, with ACHN renal, in the assay with HCT-116 colon, in the assay with SNB-19 CNS, in the assay on SR leukemia and with HCC-2998 colon was > 100 µM in each case. The TGI in the assay on TK-10 renal, in the assay on CCRF-CEM leukemia and with SW-620 colon was > 100 µM in each case.
With `O=[N+]([O-])C(/C=C(\Cl)[N+](=O)[O-])=C1Nc2ccccc2N1`, the TGI in the assay with SK-MEL-28 melanoma was > 100 µM; in the assay on ACHN renal, > 100 µM; with HCT-116 colon, > 100 µM; with SNB-19 CNS, > 100 µM; with SR leukemia, 75.1 µM; with HCC-2998 colon, > 100 µM. Further, the figures for the TGI in the assay on TK-10 renal, with CCRF-CEM leukemia and in the assay on SW-620 colon were > 100 µM, 97.5 µM and > 100 µM, respectively.
On to `O=c1[nH]nc(NCc2ccccc2)c2nnn(Cc3ccccc3)c12`, for which the TGI with SK-MEL-28 melanoma, with ACHN renal, in the assay on HCT-116 colon, in the assay with SNB-19 CNS, with SR leukemia and with HCC-2998 colon was > 100 µM throughout. In addition, the TGI with TK-10 renal and in the assay with CCRF-CEM leukemia was > 100 µM throughout.
In the case of `CCOC(=O)C(NC(=O)c1ccccc1)(Nc1ccc(S(=O)(=O)Nc2ncccn2)cc1)C(F)(F)F` (stereo not drawn), the TGI in the assay with SK-MEL-28 melanoma, in the assay on ACHN renal, with HCT-116 colon, with SNB-19 CNS, in the assay on SR leukemia and in the assay on HCC-2998 colon was > 100 µM throughout. In addition, the TGI in the assay on TK-10 renal, with CCRF-CEM leukemia and in the assay on SW-620 colon was > 100 µM throughout.
